Assay results published in PubChem BioAssay (NCI).
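96-well plates; 48 h exposure; 5 concentrations. Endpoints by linear interpolation between flanking doses. Not reached: highest tested concentration assigned. GI50 is the concentration that inhibits growth by half. TGI marks complete inhibition of growth.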

Tests used:
Test in all cases: NCI anticancer screen, dose series, 48 h
[1] = system: U251 CNS
[2] = system: OVCAR-4 ovarian
[3] = system: OVCAR-8 ovarian
[4] = system: RPMI-8226 leukemia
[5] = system: SK-MEL-5 melanoma
[6] = system: MOLT-4 leukemia
[7] = system: HL-60(TB) leukemia
[8] = system: SF-268 CNS
[9] = system: KM12 colon

Row | SMILES | GI50 [1] [µM] | TGI [1] [µM] | GI50 [2] [µM] | TGI [2] [µM] | GI50 [3] [µM] | TGI [3] [µM] | GI50 [4] [µM] | TGI [4] [µM] | GI50 [5] [µM] | TGI [5] [µM] | GI50 [6] [µM] | TGI [6] [µM] | GI50 [7] [µM] | TGI [7] [µM] | GI50 [8] [µM] | TGI [8] [µM] | GI50 [9] [µM] | TGI [9] [µM]
1 | NC(=NCCCC1(c2ccccc2)CCCC1)Nc1ccc(Cl)cc1 | 1.69 | 3.11 | 1.68 | 3.17 | 1.9 | 3.8 | 1.89 | 4.08 | 1.58 | 2.93 | 1.58 | 4.11 | 1.73 | 3.67 | 1.66 | 3.35 | – | –
2 | Cc1ccc2c(c1)C(C)Cc1c(ncnc1-n1cnc3cc(C)ccc31)N2C (centres undefined) | 0.0362 | 12.1 | 0.0729 | 19 | 0.037 | 15.8 | 0.0406 | 3.89 | 0.0324 | 0.165 | 0.0407 | 13.8 | 0.025 | 0.0557 | 0.045 | 12.3 | 0.0368 | 12.2
3 | COc1ccc2c(c1O)C(=O)C(CCC(=O)O)CC2 (centres undefined) | – | > 100 | – | > 100 | – | > 100 | – | > 100 | – | > 100 | – | > 100 | – | > 100 | – | – | – | –
4 | COc1c2c3ccccc3nc-2n(C)c2ccccc12 | 7.81 | 32.7 | – | – | 25.7 | > 100 | 6.04 | 24.4 | 12.8 | 33.1 | 4.7 | > 100 | 9.88 | 47.6 | 10.2 | 30.4 | 8.63 | > 100
5 | Nc1nc(Cl)cc(NCCCCCNc2cc(Cl)nc(N)n2)n1 | – | > 100 | – | > 100 | – | > 100 | – | > 100 | – | > 100 | – | > 100 | – | > 100 | – | > 100 | – | > 100
6 | C=CCCOC(=O)CO[N+](=O)[O-] | – | > 100 | – | > 100 | – | > 100 | – | > 100 | – | – | – | > 100 | – | 70.1 | – | > 100 | – | > 100
7 | CCN(CC)CC.CCOc1ccc(NC(=O)N=C=[N-])cc1.[CH-]1CCCCC1.[CH-]1CCCCC1.[CH-]1CCCCC1.[Cl-].[Sn+4] | 0.0261 | 0.0718 | 0.0446 | 0.139 | 0.0424 | 0.123 | 0.0199 | 0.064 | 0.0303 | 0.0941 | 0.0281 | 0.233 | 0.0184 | 0.0584 | 0.0332 | 0.0954 | 0.0161 | 0.0429
8 | C=CCCCn1ccc2ccccc21 | – | > 100 | – | – | – | > 100 | – | > 100 | – | > 100 | – | > 100 | – | > 100 | – | > 100 | – | > 100
9 | C#Cc1c(C)c(/C=C/C(C)=C/C=C/C(C)=C/C(=O)OC)n(C)c1C | – | > 100 | – | > 100 | – | > 100 | – | > 100 | – | – | – | > 100 | – | > 100 | – | > 100 | – | > 100
10 | CCCCCCCCCCCCCCCCOCC(CN(C)CCN(C)C)OCCCCCCCCCCCCCCCC (centres undefined) | – | > 100 | – | > 100 | – | > 100 | – | > 100 | – | > 100 | – | > 100 | – | > 100 | – | > 100 | – | > 100
11 | CC1CN(c2ccc(Cl)cc2)CC(C)(C)OC(=O)O1 (centres undefined) | – | > 100 | – | > 100 | – | > 100 | – | > 100 | – | > 100 | – | – | – | > 100 | – | > 100 | – | > 100
12 | COc1ccc(/C=C/C(=O)C(C)(C)CN2CCCCC2)cc1 | – | 30 | – | 22.1 | – | 37.7 | – | 40.3 | – | 35.5 | – | 47.9 | – | 37.9 | – | 59.8 | – | 55.7
13 | CC(=O)NC(CCCCN(Cc1ccccc1)C(=O)NCCCl)C(=O)NCc1ccccc1 (centres undefined) | – | > 100 | – | > 100 | – | > 100 | – | > 100 | – | – | – | > 100 | – | > 100 | – | > 100 | – | > 100
14 | COc1cc(Br)c(CC2(C#N)c3ccccc3C3C(N2C(=O)c2ccccc2)C3(Cl)Cl)cc1OC (centres undefined) | – | > 65.5 | – | – | – | > 65.5 | – | > 65.5 | – | > 65.5 | – | – | – | 30.2 | – | > 65.5 | – | > 65.5
15 | CC(/C=C/C(=O)c1sc(-n2nc(-c3ccccc3)cc2-c2ccccc2)nc1C)=C\c1ccccc1 | – | > 100 | > 100 | > 100 | – | > 100 | – | > 100 | – | > 100 | – | > 100 | – | > 100 | – | > 100 | – | > 100
16 | CC(=O)[O-].CC(=O)[O-].O=C(N/N=C/c1cc(Cl)cc(Cl)c1O)c1ccncc1.[Ni+2] | – | > 100 | – | – | – | > 100 | – | > 100 | – | > 100 | – | > 100 | – | 45.3 | – | > 100 | – | > 100

Row | SMILES | GI50 [1] [µM] | TGI [1] [µM] | GI50 [2] [µM] | TGI [2] [µM] | GI50 [3] [µM] | TGI [3] [µM] | GI50 [4] [µM] | TGI [4] [µM] | GI50 [5] [µM] | TGI [5] [µM] | GI50 [6] [µM] | TGI [6] [µM] | GI50 [7] [µM] | TGI [7] [µM] | GI50 [8] [µM] | TGI [8] [µM] | GI50 [9] [µM] | TGI [9] [µM]
17 | CCOc1cc2ccc3c4cc(OC)c(OC)cc4cnc3c2cc1OCC | – | > 100 | – | > 100 | – | > 100 | – | > 100 | – | > 100 | – | > 100 | – | – | – | > 100 | – | > 100
18 | C[N+](C)(C)CC(=O)N/N=C(\CCC(=O)NCCc1ccccc1)CC(=O)c1ccccc1 | – | > 100 | – | > 100 | – | > 100 | – | > 100 | – | > 100 | – | > 100 | – | > 100 | – | > 100 | – | > 100
19 | CCN(CC)c1ccc(C2CC(c3cc(OC)c(OC)c(OC)c3)=NN2)cc1 (centres undefined) | 0.42 | > 100 | 4.34 | > 100 | 0.43 | > 27.5 | 0.632 | 7.91 | 0.706 | 3.52 | 1.56 | 8.14 | 0.59 | 2.7 | 0.797 | > 100 | 0.372 | > 100
20 | CC1=C(C(=O)Nc2ccccc2)C(c2ccc([N+](=O)[O-])cc2)C(C(=O)Nc2ccccc2)=C(C)N1 | – | 38.6 | – | – | – | 35.8 | – | 73.3 | – | 61.7 | – | > 100 | – | 34.1 | – | 57.9 | – | 34.8
21 | Cc1nnc(N=Nc2c(O)[nH]c3c(Cl)cc(Cl)cc23)n1N | – | > 100 | – | > 100 | – | > 100 | – | > 100 | – | – | – | > 100 | – | > 100 | – | > 100 | – | > 100
22 | O=C(Cc1nc2ccccc2s1)Nc1ccc(Cl)cc1 | – | > 100 | – | > 100 | – | > 100 | – | – | – | > 100 | – | > 100 | – | > 100 | – | > 100 | – | > 100
23 | CCSC(SCC)c1cc2c(cc1Br)OCO2 | – | 32.9 | – | > 100 | – | > 100 | – | 60.3 | – | 38.4 | – | 42.2 | – | 38 | – | > 100 | – | > 100
24 | COc1cc2c3c(c4ccc(OC)c(OC)c4c2cc1OC)CN1CCC[C@@H]1C3 | – | > 23.3 | – | 1.42 | – | 0.264 | – | – | – | 0.324 | – | 0.252 | – | 0.577 | – | 2.38 | – | 0.965
25 | COc1cc(OC)c2ssc3c(OC)cc(OC)c4ssc1c2-c43 | – | > 100 | – | > 100 | – | > 100 | – | – | – | > 100 | – | > 100 | – | – | – | > 100 | – | > 100
26 | O=C(NCCO)c1cc2c(cn1)[nH]c1ccccc12 | – | > 100 | – | > 100 | – | > 100 | – | > 100 | – | > 100 | – | > 100 | – | > 100 | – | > 100 | – | > 100
27 | CN(C)c1ncnc2c1Cc1ccccc1C(=O)N2C | – | > 100 | – | > 100 | – | > 100 | – | > 100 | – | > 100 | – | > 100 | – | > 100 | – | > 100 | – | > 100
28 | CSc1nc(NC2OCC(OC(C)=O)C(OC(C)=O)C2OC(C)=O)c(N=C(C)C(C)=O)c(=O)n1C (centres undefined) | – | > 100 | – | > 100 | – | > 100 | – | > 100 | – | > 100 | – | > 100 | – | > 100 | – | – | – | > 100
29 | O=Nc1ccc(O)c2ccccc12 | 1.65 | 3.17 | 1.17 | 2.44 | 1.57 | 5 | 2.4 | 7.58 | 1.65 | 3.04 | – | – | – | – | 2.29 | 5.87 | 2.17 | 6.02
30 | O=Cc1ccc(-c2ccc(-c3nc4ccccc4[nH]3)cc2)s1 | 26.7 | > 100 | 33.8 | 96.1 | 26.2 | 87.5 | – | – | 20.3 | 41.9 | 32.4 | > 100 | 47.1 | > 100 | 19.8 | 48.3 | 22.8 | 69
31 | CCOC(=O)Cc1nc2ccccc2s1 | – | 30.7 | – | > 10 | – | 32.8 | – | – | – | 48.5 | – | 65.9 | – | 43.9 | – | 39.2 | – | > 10
